Results from patent publication US11744791B2, “Cosmetic composition comprising amide-based compound” (Neopharm Co., Ltd., priority 2020, dated 2023).

Experiments:
CD44 = test: Analysis of expression level of CD44 in adipose tissue-derived mesenchymal stem cells; type: cell-based, human; settings: hADSCs, sample 100 μM
Method: For flow cytometric analysis of the adipose tissue-derived stem cells of Examples and Comparative Examples of the present invention, an expression level of CD44 was measured. For this purpose, each of the samples was added to each medium. A sample (100 μM) of Example 1 or 2 or Comparative Example 1 or 2 including the amide-based compound having a structure shown in the following Table 1. Also, a sample treated with 10 μM IGF-1 was used as the positive control, and the control in which the cells were not treated with the sample was used as the comparison group.
Specifically, RNA was isolated from human adipose tissue-derived mesenchymal stem cells (hADSCs) according to the manufacturer's instructions using an easy BLUE reagent. The isolated RNA was dissolved in distilled water supplemented with diethyl procarbonate (DEPC), and the absorbance was measured at 260 nm, and a concentration of the RNA was quantified, and then used for experiments. Then, an expression level of CD44 in the adipose tissue-derived stem cells was analyzed.

PPAR-γ = test: Analysis of expression level of PPAR-γ (Western blot) in sebocytes; type: cell-based; settings: human sebocytes, 24 hours
Method: An expression level of PPAR-γ was determined through Western blot in Examples and Comparative Examples of the present invention.
Specifically, human sebocytes were cultured in a 12-well plate containing a Dulbecco's modified eagle medium (DMEM)/F12 (1:1) medium supplemented with 10% fetal bovine serum (FBS) to attach 1.5×10^5 (1 mL/well) sebocytes to the 12-well plate. The sebocytes were cultured for 24 hours, and the medium was replaced with a serum-free medium. Then, an experimental group in which the cells were treated with each of the compounds of Examples or Comparative Examples was cultured for 24 hours, and the cells were then recovered. Thereafter, each of these samples was subjected to Western blot to analyze an expression level of PPAR-γ in the sebocytes. A sample (100 μM) of Example 1 or 2 or Comparative Example 1 or 2 including the amide-based compound having a structure shown in the following Table 1 was used as the sample. Also, a sample treated with 10 μM IGF-1 was used as the positive control, and the control in which the cells were not treated with the sample was used as the comparison group.

filaggrin = test: Expression level of filaggrin gene in keratinocytes (Real-Time PCR); type: cell-based, human; settings: sample 100 μM, 24 hours
Method: (§1) To determine effects of the samples of Examples and Comparative Examples of the present invention on promotion of expression of moisturizing factors, expression levels of filaggrin and loricrin were measured.
(§2) Specifically, keratinocytes commercially available from Invitrogen Corp. were cultured for a predetermined period of time in an EpiLife medium (keratinocyte growth media:keratinocyte growth medium) supplemented with a human keratinocyte growth supplement (HKGS), subcultured three times, and then used. The keratinocytes which were subcultured 3 times were cultured to a confluence of 70 to 80% in a 6-well plate, and each of the wells was separately treated with each of the samples. Thereafter, the cells were cultured for a total of 24 hours. RNA of the keratinocytes was extracted from the cultured cells using an easy BLUE reagent, and cDNA was synthesized using a SuperScript reverse transcriptase III kit. A 7500 Fast Real-Time PCR for genetic comparison was performed using a 2×TaqMan universal PCR mixture (10 μL), a 20×TaqMan expression assay mix (1 μL), cDNA (50 ng), and primers (Filaggrin: Hs00856927_g1*, Loricrin: Hs01894962_s1*). Also, a sample treated with 10 μM IGF-1 was used as the positive control, and the control in which the cells were not treated with the sample was used as the comparison group.

loricrin = test: Expression level of loricrin gene in keratinocytes (Real-Time PCR); type: cell-based, human; settings: sample 100 μM, 24 hours
Method: as §1, §2

Molecule: CCCCCCCC(=O)NCCO [Comparative Example 2, N-(2-hydroxyethyl)octanamide, reference compound]
- expression level of CD44 (in words), compared to the control (CD44): lower expression level of CD44
- inhibited the expression of PPAR-γ, compared to the control (PPAR-γ; sample 100 μM): 75.5%

Molecule: CCCCCCCCCC(=O)NC(CO)CO [Example 1, N-(2-hydroxy-1-(hydroxymethyl)ethyl)decanamide]
- enhanced expression level of filaggrin, compared to the control (filaggrin): ≥ 300%
- enhanced expression level of loricrin, compared to the control (loricrin): ≥ 400%
- effect of improving the expression of PPAR-γ (PPAR-γ; sample 100 μM): 128.4%

Molecule: CCCCCC(=O)NCC(O)CO (stereo not shown) [Example 2, N-(2,3-dihydroxypropyl)hexanamide]
- effect of improving the expression of PPAR-γ (PPAR-γ; sample 100 μM): 140.8%

Molecule: IGF-1: positive control, sample treated with 10 μM IGF-1 [reference compound]
- expression of PPAR-γ (in words) (PPAR-γ; IGF-1 10 μM, samples 100 μM): promoted
